In publication PMC8068036, “Synthesis of New Biscoumarin Derivatives, In Vitro Cholinesterase Inhibition, Molecular Modelling and Antiproliferative Effect in A549 Human Lung Carcinoma Cells” (International Journal of Molecular Sciences, 2021):
Like-named read-outs stand apart in the source and are kept apart here.

How the values were obtained:
A549 cancer cell line = details: ref 55 (Huang et al.); cited from earlier work
[1] = system: human umbilical vein endothelial cell (HUVEC) cell line; details: ref 55 (Huang et al.); cited from earlier work
hMAO-B = system: hMAO-B; set-up: method as in PMID 25812965, PMID 27744252, PMID 10213168; details: printed in Figure 2, quantity not named; cited from earlier work
AChE = system: AChE; set-up: method as in PMID 25812965, PMID 27744252, PMID 10213168; details: Figure 2; cited from earlier work
BChE = system: BChE; set-up: method as in PMID 25812965, PMID 27744252, PMID 10213168; details: Figure 2; cited from earlier work
hAChE = system: hAChE; set-up: method as in PMID 25812965, PMID 27744252, PMID 10213168; details: Figure 2; cited from earlier work
rat brain AChE = system: rat brain AChE; set-up: method as in PMID 10213168; details: cited from earlier work
hBChE (human plasma) = molecular target: T1, hBChE (human plasma) (Homo sapiens, UniProt P06276); test: biochemical; format: biochemical; details: human plasma BChE, mean of at least three experiments
T1 construct: Human plasma was used as a source of BChE; from tissue; host or cells: human plasma from heparinized blood
T1 sequence (P06276 29-602): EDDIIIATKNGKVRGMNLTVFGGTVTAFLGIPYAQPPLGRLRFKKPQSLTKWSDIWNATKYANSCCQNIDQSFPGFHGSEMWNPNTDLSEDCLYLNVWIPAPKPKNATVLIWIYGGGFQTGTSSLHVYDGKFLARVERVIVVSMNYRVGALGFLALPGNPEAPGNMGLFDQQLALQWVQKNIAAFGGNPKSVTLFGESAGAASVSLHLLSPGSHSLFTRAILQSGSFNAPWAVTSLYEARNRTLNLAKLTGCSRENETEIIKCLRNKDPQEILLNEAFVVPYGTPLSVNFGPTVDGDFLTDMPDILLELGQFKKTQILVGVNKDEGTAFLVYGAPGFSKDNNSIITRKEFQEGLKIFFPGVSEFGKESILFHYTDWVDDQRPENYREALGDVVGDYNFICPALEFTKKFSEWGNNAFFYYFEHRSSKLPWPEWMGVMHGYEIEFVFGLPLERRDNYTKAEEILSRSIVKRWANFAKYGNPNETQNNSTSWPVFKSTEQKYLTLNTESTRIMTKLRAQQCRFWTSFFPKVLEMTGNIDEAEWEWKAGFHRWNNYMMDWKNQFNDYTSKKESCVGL
Protocol: (§1) Human recombinant AChE (EC 3.1.1.7), 5,5′-dithiobis(2-nitrobenzoic acid) (Ellman′s reagent, DTNB), phosphate buffer (PB, 0.1 M, pH 7.4), and acetylthiocholine (ATC) and butyrylthiocholine (BTC), were purchased from Sigma-Aldrich, Prague, Czech Republic. Human plasma was used as a source of BChE and was prepared from heparinized human blood. The blood was centrifuged for 20 min (4 °C, 2300× g) on a Hettich Universal 320R centrifuge. The plasma was separated and stored at […]. Polystyrene Nunc 96-well microplates with a flat bottom shape (ThermoFisher Scientific, Waltham, MA, USA) were used for measuring purposes.
(§2) All of the assays were carried out in a 0.1 M phosphate buffer, pH 7.4. The assay medium (100 µL) consisted of 40 µL of 0.1 M phosphate buffer (pH 7.4), 20 µL of 0.01 M DTNB, 10 µL of the enzyme, and 20 µL of 0.01 M substrate ATC/BTC iodide solution).
(§3) The tested compounds were preincubated for 5 min prior to use. The reaction was initiated immediately upon addition of 20 µL of the substrate. […] Each concentration was assayed in triplicate. Software GraphPad Prism 5 (San Diego, CA, USA) was used in the evaluation of the statistical data.

human recombinant AChE = molecular target: T2, human recombinant AChE (Homo sapiens, UniProt P22303); test: biochemical; format: biochemical; details: mean of at least three experiments
T2 construct: purchased Sigma-Aldrich, Prague, Czech Republic
T2 sequence (P22303 32-614): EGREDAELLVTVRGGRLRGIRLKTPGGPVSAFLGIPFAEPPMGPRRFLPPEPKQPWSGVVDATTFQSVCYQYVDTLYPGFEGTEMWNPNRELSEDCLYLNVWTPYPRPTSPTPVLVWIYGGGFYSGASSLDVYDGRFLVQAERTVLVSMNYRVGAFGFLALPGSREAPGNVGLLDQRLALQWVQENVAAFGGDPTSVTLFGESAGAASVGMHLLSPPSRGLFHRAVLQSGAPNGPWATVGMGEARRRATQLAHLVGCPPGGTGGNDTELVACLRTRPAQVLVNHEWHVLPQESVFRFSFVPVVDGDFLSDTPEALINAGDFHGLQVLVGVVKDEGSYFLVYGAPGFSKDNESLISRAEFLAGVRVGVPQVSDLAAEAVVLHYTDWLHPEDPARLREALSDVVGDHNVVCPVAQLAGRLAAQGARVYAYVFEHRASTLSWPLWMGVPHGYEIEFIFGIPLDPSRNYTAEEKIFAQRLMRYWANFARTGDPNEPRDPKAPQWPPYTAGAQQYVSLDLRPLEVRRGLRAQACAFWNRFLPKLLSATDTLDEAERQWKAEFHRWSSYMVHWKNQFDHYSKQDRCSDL
Protocol: as §1, §2, §3

in vitro = test: in vitro
Protocol: The parallel artificial membrane permeability assay (PAMPA) is used as a non-cell-based in vitro assay to predict BBB penetration and is carried out in a coated 96-well membrane filter. In our assays, the filter membrane of the donor plate was coated with PBL (Polar Brain Lipid, Avanti, Denver, CO, USA) in dodecane (4 µL of 20 mg mL^−1 PBL in dodecane), and the acceptor well was filled with 300 µL of phosphate buffered saline (PBS) (pH 7.4; VA). The tested compounds were first dissolved in DMSO, and the resulting mixture was diluted with PBS (pH 7.4) to reach the final concentration (40–100 µM) in the donor well. […] Three hundred microliters of the donor solution (VD) were added to the donor wells, and the donor filter plate was carefully placed onto the acceptor plate to ensure that the coated membrane was “in contact” with both the donor solution and the acceptor buffer. The test compound diffused from the donor well through the polar brain lipid membrane (area = 0.28 cm^2) to the acceptor well. The concentration of the tested compound in both the donor and acceptor wells was assessed after 3, 4, 5, and 6 h of incubation, respectively, in quadruplicate using a UV plate reader Synergy HT (Biotek, Winooski, VT, USA) at the maximum absorption wavelength of each compound. Additionally, solutions at the theoretical equilibrium of the given compound (i.e., the theoretical concentration if the donor and acceptor compartment were simply combined) were also prepared.

A549 cells [2] = test: MTT assay, A549; format: cell-based, human; details: for IC50: Homo sapiens
Protocol: Human lung carcinoma cell line A549 and CCD-18Co colon fibroblasts were purchased from the American Type Culture Collection (ATCC, Rockville, MD, USA). The A549 cells were cultured in a complete RPMI-1640 medium (Sigma-Aldrich, St. Louis, MO, USA), and CCD-18Co cells were cultured in an MEM medium (PAN-Biotech GmbH, Aidenbach, Germany). The media were supplemented with 10% fetal bovine serum (FBS; Biosera, Nuaille, France) and antibiotics (1% Antibiotic-Antimycotic 100× and 50 × 10^−3 g l^−1 gentamicin; Biosera) at 37 °C, 95% humidity, and 5% CO2.
Prior to the selected treatments, cells were seeded on 12-well μ-Chamber slides (ibidi GmbH, Martinsried, Germany) and 6 and/or 96-well plates (TPP, Trasadingen, Switzerland) and left to settle for 24 h. The biscoumarin derivative solutions (at concentrations ranging from 10–100 µM) were then added to cells for 24 or 48 h, and analysis was subsequently performed.
MTT assays were performed in order to evaluate changes in the metabolic activity of cells that had occurred as a consequence of treatment with the biscoumarin derivatives. A549 cells (15 × 10^3 cells/cm^2) and CCD-18Co ([…]) were seeded in 96-well microplates. The cells were treated for 24 and 48 h with different concentrations (10, 25, 35, 50, 65, 75, and 100 µM) of the derivatives. After the treatment, the MTT (3-(4,5-dimethylthiazol-2-yl)-2,5-diphenyltertrazolium bromide) solution in PBS (5 mg mL^−1) was added to each well. […]. The absorbance of formazan (λ = 584 nm) was measured using a BMG FLUOstar Optima spectrometer (BMG Labtech GmbH, Offenburg, Germany). The results were evaluated as percentages of the absorbance of the untreated control. Results are presented as the average percentage of cells from three independent experiments. IC50 values for the derivatives were extrapolated from a sigmoidal fit (dose–response curve) to the metabolic activity data using OriginPro 8.5.0 SR1 (OriginLab Corp., Northampton, MA, USA).

A549 cells [3] = test: Mitotic activity (Ki67 index) by immunolabelling and confocal microscopy; format: cell-based, human; details: 24 h, vs control
Protocol: The studied biscoumarin derivatives were added to cells seeded on 12-well μ-Chamber slides for 24 h. After cultivation with the derivatives, the samples (both the control without the derivatives and experimental groups) were washed with a 0.1 M PBS solution buffer to remove all non-cell-absorbed derivative residues and fixed with 4% paraformaldehyde for 20 min at RT. Alternatively, cells were incubated with Mitotracker Red (0.5 µM; Thermo Fisher Scientific, Waltham, MA, USA) for 30 min at 37 °C, washed with 0.1 M PBS, and fixed with 4% paraformaldehyde for 20 min at RT. For the quantification of proliferative activity and programmed cell death, samples were incubated overnight at 4 °C with the mouse anti-Ki67 antibody (NCL-L-Ki67-MM1, 1:100, Leica Biosystems, Wetzlar, Germany) and rabbit anti-cleaved PARP (cat. no. 94885, 1:100, Cell Signaling, Danvers, MA, USA) diluted in 0.1 M PBS containing 1% normal donkey serum (Jackson Immunoresearch, Cambridgeshire, Great Britain) and 0.3% Triton-X 100. […]
All samples were evaluated using a Leica TCS SP5X confocal system (Leica Microsystems, Mannheim, Germany). The biscoumarin derivatives were visualized in cells using a 405 nm laser, and the fluorescence was captured in the range of 420–480 nm with identical exposure parameters for all samples. […] Microphotographs were taken with a 40× objective lens (NA = 0.75; voxel size 223 × 223 nm) and a 63× oil lens (NA = 1.4; voxel size 171 × 171 nm); the images were captured and analyzed using LAS AF software (Leica Microsystems, Wetzlar, Germany).
The proliferative activity of cells incubated with the studied derivatives was expressed as a Ki67 index. In all samples (n = 3 samples per each experimental group), the number of Ki67^+ nuclei was calculated in groups of 100 randomly selected cells. […]

In the case of O=c1[nH]cc(F)c(=O)[nH]1 [5-fluorouracil], the IC50 (A549 cancer cell line) is listed as 36.3 µM and the IC50 [1] is listed as 25.1 µM.
In the case of Cc1c(N=O)c(=O)oc2cc(CCCN3CCC(Cc4ccccc4)CC3)ccc12 [compound 7], the IC50 (hMAO-B) is listed as 5.9 µM, the IC50 (AChE) is listed as 0.3 µM and the IC50 (BChE) is listed as 0.98 µM.
In the case of Cc1c(C)c2ccc(OCCN3CCN(CCNc4c5c(nc6ccccc46)CCCC5)CC3)cc2oc1=O [compound 6], the IC50 (hAChE) is listed as 0.0161 µM.
For COc1cc2oc(=O)c(C)c(C)c2cc1OCCCN1CCN(c2ccccc2OC)CC1 [KA-672, ensaculin], the IC50 (rat brain AChE) is listed as 0.36 µM.
In the case of N.N.[Cl][Pt][Cl] [cisplatin], the IC50 (A549 cancer cell line) is given as 13.5 µM and the IC50 [1] is given as 9.68 µM.
With COC(=O)Cc1cc(=O)oc2cc(OCCCN3CCN(CCNC(=O)Cc4cc(=O)oc5cc(O)ccc45)CC3)ccc12 [12a] the “IC50 ± S.E.M. hBChE” value (hBChE (human plasma)) was “did not show inhibitory activity”, the IC50 (hBChE (human plasma); read-out: IC50 ± S.E.M. hBChE) was > 500 µM and the “IC50 ± S.E.M. hAChE” value (human recombinant AChE) was “did not show inhibitory activity”. For the same compound, the IC50 (human recombinant AChE; read-out: IC50 ± S.E.M. hAChE) was > 500 µM, the Papp (in vitro; PAMPA, pH 7.4) was 1.53 ± 0.64 ×10⁻⁶ cm/s and the “CNS Predicted Availability” value (in vitro; classification from PAMPA-BBB Pe) was “CNS− (CNS−: low BBB permeation predicted with Pe (×10^−6 cm s^−1) < 2.0)”. The “Metabolic activity of A549 cells (in words)” value (A549 cells [2]; 10 to 100 μM, 24 and 48 h) was “did not lose the ability to convert dye”, the IC50 (A549 cells [2]; A549, 24 h, read-out: IC50 A549 24 h) was > 100 µM and the IC50 (A549 cells [2]; A549, read-out: IC50 A549 48 h, 48 h) was > 100 µM. The “Number of proliferating cells (Ki67 index), in words” value (A549 cells [3]) was “no significant changes”.
